# Activity calls are given as the source filed them. No cut-off for these calls is given here.
# Experiments:
# Format in all cases: protein assay
# [1] = target: T1, Alpha-1,2-mannosidase, putative (BT_4073) (Bacteroides thetaiotaomicron) (UniProt Q8A0E8); test: Activity of Bacteroides thetaiotaomicron GH92 alpha-mannosidase GH92 alpha-mannosidase 4073 assessed as mannose release at 1 mM after 16 hrs by HPLC relative to untreated control after 16 hrs by HPLC
# T1 sequence (whole entry): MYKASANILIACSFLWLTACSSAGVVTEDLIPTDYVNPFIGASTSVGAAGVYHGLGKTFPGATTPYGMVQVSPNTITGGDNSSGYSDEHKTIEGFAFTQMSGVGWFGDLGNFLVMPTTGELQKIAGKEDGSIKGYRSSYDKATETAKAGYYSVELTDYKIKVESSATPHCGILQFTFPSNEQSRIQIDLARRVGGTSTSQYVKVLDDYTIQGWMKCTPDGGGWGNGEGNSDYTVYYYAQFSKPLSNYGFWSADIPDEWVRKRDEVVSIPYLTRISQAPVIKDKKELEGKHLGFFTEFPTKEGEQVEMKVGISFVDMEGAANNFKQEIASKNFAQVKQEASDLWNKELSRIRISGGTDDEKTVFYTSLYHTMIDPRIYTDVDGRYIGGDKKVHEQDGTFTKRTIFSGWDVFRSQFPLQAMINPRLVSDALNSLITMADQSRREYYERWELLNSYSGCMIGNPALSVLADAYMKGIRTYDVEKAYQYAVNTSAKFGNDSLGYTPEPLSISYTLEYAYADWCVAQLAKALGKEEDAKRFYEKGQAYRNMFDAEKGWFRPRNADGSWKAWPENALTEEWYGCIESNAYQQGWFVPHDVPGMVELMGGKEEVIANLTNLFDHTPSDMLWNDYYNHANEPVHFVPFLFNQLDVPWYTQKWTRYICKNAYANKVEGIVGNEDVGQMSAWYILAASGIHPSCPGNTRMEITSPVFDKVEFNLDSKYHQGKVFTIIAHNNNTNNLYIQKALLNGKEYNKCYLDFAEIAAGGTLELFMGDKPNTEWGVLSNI
# [2] = target: T2, Alpha-1,2-mannosidase (BT_3784) (Bacteroides thetaiotaomicron) (UniProt Q8A182); test: Activity of Bacteroides thetaiotaomicron GH92 alpha-mannosidase GH92 alpha-mannosidase 3784 assessed as mannose release at 1 mM after 16 hrs by HPLC relative to untreated control after 16 hrs by HPLC
# T2 sequence (whole entry): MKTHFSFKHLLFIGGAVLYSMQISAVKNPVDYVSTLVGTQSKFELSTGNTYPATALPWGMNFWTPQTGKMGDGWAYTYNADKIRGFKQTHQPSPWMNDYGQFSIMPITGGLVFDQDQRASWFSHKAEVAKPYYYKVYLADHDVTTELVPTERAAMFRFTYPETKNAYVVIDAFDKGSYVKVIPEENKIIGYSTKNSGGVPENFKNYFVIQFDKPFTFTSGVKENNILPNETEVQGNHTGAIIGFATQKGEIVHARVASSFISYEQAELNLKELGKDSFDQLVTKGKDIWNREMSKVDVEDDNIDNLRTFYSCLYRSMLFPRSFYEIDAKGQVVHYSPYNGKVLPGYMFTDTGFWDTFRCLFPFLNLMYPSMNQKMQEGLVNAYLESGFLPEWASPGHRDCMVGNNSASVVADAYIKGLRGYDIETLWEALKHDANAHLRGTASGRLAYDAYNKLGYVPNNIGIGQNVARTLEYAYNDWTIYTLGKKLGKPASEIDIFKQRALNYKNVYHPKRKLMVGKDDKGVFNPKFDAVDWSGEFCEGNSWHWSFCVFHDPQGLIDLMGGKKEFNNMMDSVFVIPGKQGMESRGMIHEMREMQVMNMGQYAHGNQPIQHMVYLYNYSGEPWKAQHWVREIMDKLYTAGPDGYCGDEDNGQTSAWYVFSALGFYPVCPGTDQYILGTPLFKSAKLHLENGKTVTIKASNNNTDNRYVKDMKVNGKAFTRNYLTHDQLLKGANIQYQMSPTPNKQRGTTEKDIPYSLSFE
# [3] = target: T3, Alpha-1,2-mannosidase, putative (BT_3773) (Bacteroides thetaiotaomicron) (UniProt Q8A193); test: Activity of Bacteroides thetaiotaomicron GH92 alpha-mannosidase GH92 alpha-mannosidase 3773 assessed as mannose release at 1 mM after 16 hrs by HPLC relative to untreated control after 16 hrs by HPLC
# T3 sequence (whole entry): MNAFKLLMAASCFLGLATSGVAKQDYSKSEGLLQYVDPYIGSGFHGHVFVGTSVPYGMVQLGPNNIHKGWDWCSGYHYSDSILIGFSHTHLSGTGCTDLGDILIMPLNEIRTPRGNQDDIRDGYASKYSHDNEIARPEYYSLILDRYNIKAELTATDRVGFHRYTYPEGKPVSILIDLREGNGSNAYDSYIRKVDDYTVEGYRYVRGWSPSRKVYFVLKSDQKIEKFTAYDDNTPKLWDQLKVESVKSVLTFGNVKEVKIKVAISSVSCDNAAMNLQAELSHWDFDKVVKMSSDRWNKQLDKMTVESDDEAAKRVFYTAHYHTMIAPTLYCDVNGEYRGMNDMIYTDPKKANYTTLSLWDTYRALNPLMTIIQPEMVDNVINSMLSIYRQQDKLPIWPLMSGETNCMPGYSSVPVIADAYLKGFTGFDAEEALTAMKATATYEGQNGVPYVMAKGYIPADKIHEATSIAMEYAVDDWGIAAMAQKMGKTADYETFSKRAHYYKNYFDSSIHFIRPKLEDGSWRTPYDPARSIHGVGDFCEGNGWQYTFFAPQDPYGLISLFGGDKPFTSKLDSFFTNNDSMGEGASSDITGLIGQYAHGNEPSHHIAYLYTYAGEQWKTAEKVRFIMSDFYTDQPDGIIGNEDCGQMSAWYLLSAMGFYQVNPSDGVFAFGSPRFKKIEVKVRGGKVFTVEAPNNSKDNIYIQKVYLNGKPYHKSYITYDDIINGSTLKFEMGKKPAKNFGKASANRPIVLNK
Activity [1],Activity [2],Activity [3] [%],Compound
inactive,inactive,0.0088,OC[C@H]1O[C@H](OC[C@H]2O[C@H](O)[C@@H](O)[C@@H](O)[C@@H]2O)[C@@H](O)[C@@H](O)[C@@H]1O
inactive,100%,0.91,OC[C@H]1O[C@H](O[C@H]2[C@@H](O)[C@H](O)[C@@H](CO)O[C@@H]2O)[C@@H](O)[C@@H](O)[C@@H]1O
inactive,5.6%,,OC[C@H]1O[C@H](O[C@@H]2[C@H](O)[C@@H](O)O[C@H](CO)[C@H]2O)[C@@H](O)[C@@H](O)[C@@H]1O
100%,7.8%,4.7,OC[C@H]1O[C@H](O[C@H]2[C@H](O)[C@H](O)[C@@H](O)O[C@@H]2CO)[C@@H](O)[C@@H](O)[C@@H]1O

# Source: ChEMBL document CHEMBL1250451, “Mechanistic insights into a Ca2+-dependent family of alpha-mannosidases in a human gut symbiont” (Nat Chem Biol, 2010)
